Holding throughout (type): functional
One assay deals with NCI-H23. Put plainly: Cytotoxicity against human NCI-H23 cells […] at 50 uM measured after 48 hrs by MTT assay relative to control.
The next assay deals with SW-620. Put plainly: Cytotoxicity against human SW620 cells assessed as inhibition of cell growth at 50 uM measured after 48 hrs by MTT assay relative to control.
The subject of a further assay is NCI-H1299. Put plainly: Cytotoxicity against human NCI-H1299 cells assessed as inhibition of cell growth at 50 uM measured after 48 hrs by MTT assay relative to control. Also on record: scale not given: the % may be the effect or the level left.
The next assay has as its system Caco-2. Put plainly: Cytotoxicity against human Caco-2 cells assessed as inhibition of cell growth at 50 uM measured after 48 hrs by MTT assay relative to control. Details: scale not given: the % may be the effect or the level left.
A further assay deals with A-375. Put plainly: Cytotoxicity against human A-375 cells […] at 50 uM measured after 48 hrs by MTT assay relative to control. (In general: Tetrazolium dyes change colour on reduction, which living cells bring about.)
In the next assay the test system is BEAS-2B. Put plainly: Cytotoxicity against human BEAS-2B cells assessed as inhibition of cell growth at 50 uM measured after 48 hrs by MTT assay relative to control.

Calls of active or inactive are those of the source. No cut-off for these calls is given here.

The values that follow come from ChEMBL document CHEMBL5357084, “Structure-Guided Discovery of Diverse Cytotoxic Dimeric Xanthones/Chromanones from Penicillium chrysogenum C-7-2-1 and Their Interconversion Properties” (J Nat Prod, 2024).

For `COC(=O)[C@@]12Oc3c(-c4ccc5c(c4O)C(=O)C[C@](C(=O)OC)([C@@H]4OC(=O)C[C@@H]4C)O5)ccc(O)c3C(=O)C1=C(O)C[C@H](C)[C@H]2O`, the Activity in the assay on NCI-H23 was 102.6%; with NCI-H1299 it was 66.2%; in the assay on Caco-2, 102.4%; in the assay on A-375 it was 106%. Further, the “Cell growth relative to control” value in the assay on SW-620 is given as 117%; with BEAS-2B, 96.8%.

Take `COC(=O)C[C@H](C)[C@@H](O)[C@]1(C(=O)OC)CC(=O)c2c(ccc(-c3ccc4c(c3O)C(=O)C[C@](C(=O)OC)([C@@]3(O)OC(=O)C[C@@H]3C)O4)c2O)O1`: the Activity in the assay with NCI-H23 was found to be 73.6%; in the assay with NCI-H1299 it was 87.9%; in the assay on Caco-2 it was 92.1%; with A-375 it was 94.4%. In addition, the “Cell growth relative to control” value is on record as 115.5% in the assay with SW-620 and 171.6% in the assay with BEAS-2B.

Turning to `COC(=O)[C@@]12Oc3ccc(-c4ccc5c(c4O)C(=O)C[C@](C(=O)OC)([C@H]4OC(=O)C[C@@H]4C)O5)c(O)c3C(=O)C1=C(O)C[C@H](C)[C@H]2O`, the Activity in the assay with NCI-H23 amounted to 87.6%; with NCI-H1299, 78.4%; in the assay with Caco-2, 82.5%; with A-375, 74.7%. Moreover, the entries for the “Cell growth relative to control” value in the assay on SW-620 and in the assay on BEAS-2B were 90.4% and 109.9%, respectively.

For `COC(=O)[C@@]12Oc3c(c(O)cc(C)c3-c3ccc4c(c3O)C(=O)C3=C(O)C[C@H](C)[C@H](O)[C@]3(C(=O)OC)O4)C(=O)C1=C(O)CC[C@H]2O`, the Activity with NCI-H23 stood at 82.6%; with NCI-H1299, 81.1%; in the assay on Caco-2 it was 85%; in the assay on A-375, 79.9%. For the same compound, the “Cell growth relative to control” value amounted to 106.3% in the assay with SW-620 and 99.5% in the assay with BEAS-2B.

As for `COC(=O)[C@@]1([C@H](O)[C@@H](C)CC(=O)O)CC(=O)c2c(ccc(-c3ccc4c(c3O)C(=O)C[C@@](C(=O)OC)([C@H](O)[C@@H](C)CC(=O)O)O4)c2O)O1`, the Activity was found to be 83.6% in the assay on NCI-H23, 64.9% in the assay on NCI-H1299, 94.4% in the assay with Caco-2 and 103.2% with A-375. Further, the entries for the “Cell growth relative to control” value in the assay with SW-620 and in the assay on BEAS-2B were 98.7% and 105.5%, respectively.

On to `COC(=O)C[C@H](C)[C@@H](O)[C@]1(C(=O)OC)CC(=O)c2c(O)ccc(-c3ccc4c(c3O)C(=O)C[C@](C(=O)OC)([C@@]3(O)OC(=O)C[C@@H]3C)O4)c2O1`, for which the Activity was 86.7% with NCI-H23, 70.4% with NCI-H1299, 55.9% in the assay on Caco-2 and 102.5% in the assay on A-375. Also, the “Cell growth relative to control” value with SW-620 is recorded as 72.9%; in the assay on BEAS-2B, 171%.

For `COC(=O)[C@@]1([C@H](O)[C@@H](C)CC(=O)O)CC(=O)c2c(ccc(-c3ccc(O)c4c3O[C@](C(=O)OC)([C@H](O)[C@@H](C)CC(=O)O)CC4=O)c2O)O1`, the Activity in the assay on NCI-H23 was determined as 73.1%; in the assay with NCI-H1299, 78.6%; in the assay on Caco-2 it was 94.4%; with A-375, 91.7%. For the same compound, the entries for the “Cell growth relative to control” value with SW-620 and in the assay with BEAS-2B were 99.3% and 110%, respectively.

As to `COC(=O)[C@@]12Oc3c(-c4ccc5c(c4O)C(=O)C[C@](C(=O)OC)([C@H]4OC(=O)C[C@@H]4C)O5)ccc(O)c3C(=O)C1=C(O)C[C@H](C)[C@H]2O`, the Activity with NCI-H23 was 82.8%; in the assay on NCI-H1299 it was 64.2%; in the assay on Caco-2, 99.2%; with A-375, 86.1%. In addition, the “Cell growth relative to control” value in the assay with SW-620 came out at 111%; in the assay on BEAS-2B, 179.2%.

On to `COC(=O)[C@@]12Oc3ccc(-c4ccc(O)c5c4O[C@@](C(=O)OC)([C@H]4OC(=O)C[C@@H]4C)CC5=O)c(O)c3C(=O)C1=C(O)C[C@H](C)[C@H]2O`, for which the Activity in the assay on NCI-H23 came to 56%; in the assay on NCI-H1299 it was 65.9%; in the assay with Caco-2, 82.4%; in the assay on A-375, 76.8%. Besides, in the assay with SW-620, the “Cell growth relative to control” value is reported as 94.9%. For the same compound, the result in the assay with BEAS-2B was inactive.
